Experimental data published in patent US7098195B2, “Fluorinated glucosamine analogs useful for modulating post-translational glycosylations on cells” (Health Research, Inc., priority 2001, dated 2006).

How the values were obtained:
[1] = previous studies; cited from earlier work
[2] = test system: HECA-452 epitopes on human hematopoietic KG1a cells; experiment: Flow cytometric analysis of HECA-452 epitopes on KG1a cells; assay type: cell-based
Description: (§1) In a similar set of experiments, we analyzed the effects of 4-F-GlcNAc on selectin ligand expression and function on the human hematopoietic cell line KGla. KGla cells express a distinct HECA-452-reactive CD44 glycoform that functions as both an E- and L-selectin ligand (Dimitroff, C. J. et al. (2001) J. Cell Biol., 53: 1277–1286; Dimitroff, C. J. et al. (2000) Proc. Nat. Acad. Sci., 97(25):13841–46; Sackstein, R. and Dimitroff, C. J. (2000) Blood, 96: 2765–74.), otherwise known as HCELL, respectively. This specialized glycoform represents a major E-selectin and the primary L-selectin ligand on normal CD34+ HPCs and on leukemic cells, and, therefore, is also implicated in the BM homing aspects and growth-related activities of HPCs in vivo, respectively (Id.). We first performed flow cytometric analysis of HECA-452 antigen and CD44 on 4-F-GlcNAc-treated KGla cells. […] Only positive cells, which were those cells with fluorescence above background autofluorescence and fluorochrome-conjugated secondary Ab staining, were analyzed.
(§2) Flow cytometric analysis was performed on human leukocytes utilizing both direct and indirect immunofluorescence staining approaches. All cells utilized for these experiments were washed twice with cold PBS/2%FBS and suspended at 10^7/ml PBS/1% FBS. Primary antibodies, anti-CLA (HECA-452), -CD4, -CD8, CD43 (L60) and PSGL-1 (PL-2) along with the appropriate isotype-matched control antibodies were incubated with the cells for 30 min on ice. Following two washes with PBS/2%FBS, cells were resuspended in PBS/1%FBS and fluorochrome-conjugated secondary antibodies (2 μl) and incubated for 30 min on ice. Cells were washed twice with PBS/2%FBS, resuspended in PBS and flow cytometry was performed on a FACScan apparatus equipped with an argon laser tuned at 488 nm (Becton Dickinson).

[3] = test system: CD44 on human hematopoietic KG1a cells; experiment: Flow cytometric analysis of CD44 on KG1a cells; assay type: cell-based
Description: as §1, §2

[4] = test system: human ovarian, A121, tumor cells; details: cited from earlier work
[5] = test system: panel of human tumor cell lines as well as normal endothelial cells; experiment: Growth inhibition (IC50) of human tumor cell lines and normal endothelial cells; assay type: cell-based; details: newly synthesized compounds compared with compounds synthesized by the original method
Description: Before conducting experiments with newly synthesized 3- and 4-F-GlcNAc the effects of 3- and 4-F-GlcNAc on the growth of a panel of human tumor cell lines as well as normal endothelial cells (i.e. IC50 values) were first determined and compared with the original growth inhibitory action (9 Bernacki, R. J. et al. (1977) J. Supra. Stru., 7:235–250; 10 Sharma, M. and W. Korytnyk (1980) Carbohyd. Res., 79:39–51;11 Sharma, M. et al. (1990). Carbohyd. Res., 198:205–22).

[6] = Toxicity (body weight, white cell counts, tolerability) in DTH mice; assay type: in vivo, mouse
Experimental: Thus, in these studies, a maximal dose of 250 mg/kg as well as 100 and […] doses were used in order to make both toxic and efficacy assessments of fluorinated hexosamine analog anti-inflammatory effects. To induce delayed type hypersensitivity (DTH), C57BL6 mice were sensitized on their abdomen on days 0 and 1 with 25 μl of 0.5% 2,4-dinitrofluorobenzene (DNFB) (i.e. hapten) in a 4:1 solution of acetone to olive oil (vehicle). Negative control mice were sensitized with vehicle alone. Mice were then treated from days 0–6 with drug vehicle (0.9% saline), 50 mg/kg 4-F-GlcNAc, 100 mg/kg 4-F-GlcNAc, 250 mg/kg 4-F-GlcNAc or 250 mg/kg GlcNAc (negative sugar control). Hapten-induced inflammation was then promoted on day 6 by challenging the mice with 10 μl of 0.25% DNFB on both sides of the right ear and mice also received 10 μl of vehicle alone on both sides of the left ear as a negative inflammatory control. Ear swelling responses were measured 24 h later on day 7 and subtracted from baseline measurements that were recorded on day 6.

[7] = KG1a neuraminidase then recovery in 0.05 mM
[8] = KG1a neuraminidase then recovery in 0.1 mM
[9] = KG1a neuraminidase then recovery in 0.5 mM

CC(=O)N[C@H]1C(OC(C)=O)O[C@H](COC(C)=O)[C@@H](F)[C@@H]1OC(C)=O (stereo partly drawn) [4-F-GlcNAc, 2-acetamido-2-deoxy-1,3,6-tri-O-acetyl-4-deoxy-4-fluoro-D-glucopyranose]
dose limiting toxicity [1]: ~250 mg/kg×6 days | de novo re-expression of the HECA-452 epitopes on KG1a cells ([2]; 0.05, 0.1 or 0.5 mM after neuraminidase): inhibited in a concentration-dependent manner | HECA-452 Mean Channel Fluorescence [2, 7]: 112 | HECA-452 Mean Channel Fluorescence [2, 8]: 108 | HECA-452 Mean Channel Fluorescence [2, 9]: 43 | CD44 % Positive Cell Staining [3, 7]: 100% | CD44 % Positive Cell Staining [3, 8]: 100% | CD44 % Positive Cell Staining [3, 9]: 100% | expression of CD44 on KG1a cells ([3]; even at 0.5 mM): no reduction | incorporation of radiolabeled sugar precursors [4]: conspicuous reductions | IC50 values, growth of tumor cell lines and normal endothelial cells [5]: identical to those that were previously described | WBC counts ([6]; 50 mg/kg, days 0–6): did not affect | mouse body weight ([6]; 50 mg/kg, days 0–6): did not affect | reduction in body weight ([6]; 250 mg/kg, days 0–6): ~5% | total white cell counts ([6]; 250 mg/kg, days 0–6): 60 % of drug controls | tolerability ([6]; 250 mg/kg/d×6): therapy-limiting | tolerability ([6]; 100 and 50 mg/kg/d×6 days): well-tolerated
